Measured values taken from patent publication US11234914B2, “Monosubstituted urea derivatives as a self-tanning substance” (MERCK PATENT GMBH, priority 2016, dated 2022).

Legend:
[1] = tested on: Normal Human Epidermal Keratinocytes (NHEK) and Normal Human Epidermal Melanocytes, lightly pigmented (NHEM-LP) co-culture; assay: Synthesis of melanin in NHEK/NHEM-LP co-culture; assay type: cell-based; details: 240 hours (10 days) incubation, NHEK:NHEM-LP 2:1, OD 405 nm
Experimental: Evaluation of the Synthesis of Melanin in a Cell Culture Model Containing Two Cell Types (Co-Culture), Firstly Normal Human Epidermal KeratinoCytes (NHEK) and Secondly Normal Human Epidermal Melanocytes, Lightly Pigmented (NHEM-LP)
The two cell types NHEK and NHEM-LP (NHEK:NHEM-LP) are employed in a ratio of 2:1.
The culture medium consists of the media keratinocyte-SFM (2 parts by volume) and medium M254 (1 part by volume).
Keratinocyte-SFM contains 0.25 ng/ml of epidermal growth factor (EGF), 25 μg/ml of pituitary extract (PE) and 25 μg/ml of gentamycin and was purchased from Thermo Fisher Scientific.
M254 contains PMA-free HMGS-2, 5 μg/ml of insulin, 50 U/ml of penicillin, 50 μg/ml of streptomycin and 25 μg/ml of gentamycin and was purchased from Thermo Fisher Scientific.
NHEK and NHEM-LP were incubated in the culture medium in microtitre plates (24-well plates) for 24 hours (37° C., 5% CO2). The culture medium was removed and replaced by an assay medium which contained the culture medium and compounds Ia, Ib and Ic to be tested or alternatively no test substance, the reference L-tyrosine (1 mM), 200 μM of IBMX or the solvent control 0.1% of THF, 0.15% of THF. Compounds Ia, Ib and Ic are added as solution (0.15% in THF). After replacement of the assay medium, the cells were incubated again for 240 hours (10 days). On days 3 and 7, assay medium was again added. All experimental investigations were carried out using a triple determination. After the end of the incubation, the melanin was extracted by cell lysis with 0.5 N NaOH. The optical density (OD) of each sample was measured at 405 nm. The melanin quantity was calculated from melanin standards (standard curve 0.39 to 100 μg/ml of melanin).

[2] = tested on: 3D melanized reconstructed human epidermis (RHEs-MEL); assay: Tanning properties in vitro on reconstructed epidermis; assay type: cell-based; details: compound at 25 μM and 12.5 M
Experimental: Evaluation of the Tanning Properties In Vitro on Reconstructed Epidermis
In this study, the tanning properties of compound Ic are investigated in vitro on 3D melanized reconstructed human epidermis (RHEs-MEL). The compound IBMX (3-isobutyl-1-methylxanthine) 100 μM is employed as positive control. Compound Ic is employed 25 μM and […]. Untreated reconstructed skin is used as negative control. The in vitro skin is treated systemically with the compounds to be investigated in a culture medium for 10 days and then analysed.

SMILES	stimulation of melanin synthesis ([1]; tested at 45 μM) [%]	ITA value (individual typology angle) ([2]; 10 days, both concentrations)	amount of melanin ([2]; 10 days, both concentrations)	tanning properties compared with positive control IBMX 100 μM ([2]; systemic treatment in culture medium for 10 days, evident for both concentrations)	stimulation of melanin synthesis ([1]; tested at 20 μM) [%]	stimulation of melanin synthesis ([1]; tested at 30 μM) [%]
NC(=O)NCc1ccccc1 [Compound Ia, Benzylurea]	17	–	–	–	–	–
COc1ccc(CNC(N)=O)cc1 [Compound Ib, (4-methoxybenzyl)urea]	18	–	–	–	–	–
NC(=O)NCc1ccc2c(c1)OCO2 [Compound Ic, benzo[1,3]dioxol-5ylmethylurea]	–	reduction	increased	comparably good properties as IBMX at 100 μM	23	44
